Columns and labels:
[1] = target: T1, Nuclear receptor ROR-gamma (Homo sapiens, UniProt P51449); test: Binding affinity to CM5 chip-immobilized recombinant ROR-gamma LBD (unknown origin) assessed as dissociation constant by SPR analysis
T1 sequence (P51449 whole entry): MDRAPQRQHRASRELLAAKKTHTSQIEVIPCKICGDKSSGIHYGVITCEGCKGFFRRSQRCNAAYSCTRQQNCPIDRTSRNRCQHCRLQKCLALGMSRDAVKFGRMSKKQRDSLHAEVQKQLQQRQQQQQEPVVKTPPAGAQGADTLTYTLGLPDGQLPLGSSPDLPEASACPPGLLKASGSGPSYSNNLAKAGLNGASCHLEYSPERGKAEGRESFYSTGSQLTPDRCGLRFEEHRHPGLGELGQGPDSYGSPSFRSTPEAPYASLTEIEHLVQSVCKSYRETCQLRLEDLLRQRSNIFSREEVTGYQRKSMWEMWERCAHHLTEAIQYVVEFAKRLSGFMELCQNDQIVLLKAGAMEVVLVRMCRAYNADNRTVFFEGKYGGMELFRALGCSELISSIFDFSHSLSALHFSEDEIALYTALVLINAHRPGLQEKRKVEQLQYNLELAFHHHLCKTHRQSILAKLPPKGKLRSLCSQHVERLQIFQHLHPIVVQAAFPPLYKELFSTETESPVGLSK

[2] = tested on: HPAF-II; test: Antitumor activity against human HPAF-II cells measured after 72 hrs; assay type: functional, cell-based

Row | Kd [1] [nM] | IC50 [2] [nM] | Compound
1 | 870 | 230 | C=C(C)[C@@H]1CC[C@]2(C(=O)NCCN3CCCC3)CC[C@]3(C)[C@H](CC[C@@H]4[C@@]5(C)CC[C@H](O)C(C)(C)[C@@H]5CC[C@]43C)[C@@H]12
2 | 420 | 350 | C=C(C)[C@@H]1CC[C@]2(C(=O)NC[C@H]3CCCN3C)CC[C@]3(C)[C@H](CC[C@@H]4[C@@]5(C)CC[C@H](O)C(C)(C)[C@@H]5CC[C@]43C)[C@@H]12
3 | 250 | 110 | C=C(C)[C@@H]1CC[C@]2(C(=O)NC3CCCN(C)CC3)CC[C@]3(C)[C@H](CC[C@@H]4[C@@]5(C)CC[C@H](O)C(C)(C)[C@@H]5CC[C@]43C)[C@@H]12 (stereo not given in full)
4 | 960 | 350 | C=C(C)[C@@H]1CC[C@]2(C(=O)N[C@H]3CCCN(C)C3)CC[C@]3(C)[C@H](CC[C@@H]4[C@@]5(C)CC[C@H](O)C(C)(C)[C@@H]5CC[C@]43C)[C@@H]12
5 | 120 | 130 | C=C(C)[C@@H]1CC[C@]2(C(=O)N[C@@H]3CN4CCC3CC4)CC[C@]3(C)[C@H](CC[C@@H]4[C@@]5(C)CC[C@H](O)C(C)(C)[C@@H]5CC[C@]43C)[C@@H]12
6 | 340 | 300 | C=C(C)[C@@H]1CC[C@]2(C(=O)N[C@@H]3CCCN(C)C3)CC[C@]3(C)[C@H](CC[C@@H]4[C@@]5(C)CC[C@H](O)C(C)(C)[C@@H]5CC[C@]43C)[C@@H]12
7 | 670 | 380 | C=C(C)[C@@H]1CC[C@]2(C(=O)N[C@@H]3CCN(C)C3)CC[C@]3(C)[C@H](CC[C@@H]4[C@@]5(C)CC[C@H](O)C(C)(C)[C@@H]5CC[C@]43C)[C@@H]12
8 | 660 | 320 | C=C(C)[C@@H]1CC[C@]2(C(=O)NC[C@@H]3CCCN3C)CC[C@]3(C)[C@H](CC[C@@H]4[C@@]5(C)CC[C@H](O)C(C)(C)[C@@H]5CC[C@]43C)[C@@H]12
9 |  | 320 | C=C(C)[C@@H]1CC[C@]2(C(=O)NC[C@@H]3CCN(C)C3)CC[C@]3(C)[C@H](CC[C@@H]4[C@@]5(C)CC[C@H](O)C(C)(C)[C@@H]5CC[C@]43C)[C@@H]12
10 | 290 | 310 | C=C(C)[C@@H]1CC[C@]2(C(=O)NCCN3CCC(O)C3)CC[C@]3(C)[C@H](CC[C@@H]4[C@@]5(C)CC[C@H](O)C(C)(C)[C@@H]5CC[C@]43C)[C@@H]12 (stereo not given in full)
11 |  | 360 | C=C(C)[C@@H]1CC[C@]2(C(=O)NC[C@H]3CCN(C)C3)CC[C@]3(C)[C@H](CC[C@@H]4[C@@]5(C)CC[C@H](O)C(C)(C)[C@@H]5CC[C@]43C)[C@@H]12
12 | 1870 | 210 | C=C(C)[C@@H]1CC[C@]2(C(=O)N[C@H]3CCN(C)C3)CC[C@]3(C)[C@H](CC[C@@H]4[C@@]5(C)CC[C@H](O)C(C)(C)[C@@H]5CC[C@]43C)[C@@H]12

Second part, the compound before the results:

Row | Compound | Kd [1] [nM] | IC50 [2] [nM]
13 | C=C(C)[C@@H]1CC[C@]2(C(=O)NCc3cncs3)CC[C@]3(C)[C@H](CC[C@@H]4[C@@]5(C)CC[C@H](O)C(C)(C)[C@@H]5CC[C@]43C)[C@@H]12 | 780 | 9300
14 | C=C(C)[C@@H]1CC[C@]2(C(=O)NCCCN(C)C)CC[C@]3(C)[C@H](CC[C@@H]4[C@@]5(C)CC[C@H](N)C(C)(C)[C@@H]5CC[C@]43C)[C@@H]12 | 4550 | 370
15 | C=C(C)[C@@H]1CC[C@]2(C(=O)NCCCN(C)C)CC[C@]3(C)[C@H](CC[C@@H]4[C@@]5(C)C[C@H](O)C(C)(C)[C@@H]5CC[C@]43C)[C@@H]12 | 3060 | 2780
16 | C=C1C[C@]2(C)[C@H]3CC[C@@H]4[C@H]5[C@H](C(=C)C)CC[C@]5(C(=O)NCCCN(C)C)CC[C@@]4(C)[C@]3(C)CC[C@H]2C(C)(C)C1=O | 6390 | 760
17 | C=C(C)[C@@H]1CC[C@]2(C(=O)NC3CCNCC3)CC[C@]3(C)[C@H](CC[C@@H]4[C@@]5(C)CC[C@H](O)C(C)(C)[C@@H]5CC[C@]43C)[C@@H]12 | 1960 | 1210
18 | C=C(C)[C@@H]1CC[C@]2(C(=O)NCCNc3ccncc3)CC[C@]3(C)[C@H](CC[C@@H]4[C@@]5(C)CC[C@H](O)C(C)(C)[C@@H]5CC[C@]43C)[C@@H]12 | 590 | 310
19 | C=C(C)[C@@H]1CC[C@]2(C(=O)NCC(C)(C)CN(C)C)CC[C@]3(C)[C@H](CC[C@@H]4[C@@]5(C)CC[C@H](O)C(C)(C)[C@@H]5CC[C@]43C)[C@@H]12 | 2900 | 440
20 | C=C(C)[C@@H]1CC[C@]2(C(=O)NCCOCCN(C)C)CC[C@]3(C)[C@H](CC[C@@H]4[C@@]5(C)CC[C@H](O)C(C)(C)[C@@H]5CC[C@]43C)[C@@H]12 | 520 | 320
21 | C=C(C)[C@@H]1CC[C@]2(C(=O)NCc3cc[nH]n3)CC[C@]3(C)[C@H](CC[C@@H]4[C@@]5(C)CC[C@H](O)C(C)(C)[C@@H]5CC[C@]43C)[C@@H]12 | 780 | 7030
22 | C=C(C)[C@@H]1CC[C@]2(C(=O)Nc3nccs3)CC[C@]3(C)[C@H](CC[C@@H]4[C@@]5(C)CC[C@H](O)C(C)(C)[C@@H]5CC[C@]43C)[C@@H]12 | 5460 | 1960
23 | C=C(C)[C@@H]1CC[C@]2(C(=O)NCCN(C)CCN(C)C)CC[C@]3(C)[C@H](CC[C@@H]4[C@@]5(C)CC[C@H](O)C(C)(C)[C@@H]5CC[C@]43C)[C@@H]12 | 1880 | 380
24 | C=C(C)[C@@H]1CC[C@]2(C(=O)NCCN(CC)CC)CC[C@]3(C)[C@H](CC[C@@H]4[C@@]5(C)CC[C@H](O)C(C)(C)[C@@H]5CC[C@]43C)[C@@H]12 | 720 | 120
25 | C=C(C)[C@@H]1CC[C@]2(C(=O)NCCN(CC)CCO)CC[C@]3(C)[C@H](CC[C@@H]4[C@@]5(C)CC[C@H](O)C(C)(C)[C@@H]5CC[C@]43C)[C@@H]12 | 1110 | 220
26 | CN(C)CCCNC(=O)[C@]12CC[C@@H](C3(C)CC3)[C@@H]1[C@H]1CC[C@@H]3[C@@]4(C)CC[C@H](O)C(C)(C)[C@@H]4CC[C@@]3(C)[C@]1(C)CC2 | 240 | 120

Source: ChEMBL document CHEMBL5620362 (Eur J Med Chem, 2023)
